Experimental data reported in paper PMC4352194, “Physicochemical and Biological Properties of Oxovanadium(IV), Cobalt(II) and Nickel(II) Complexes with Oxydiacetate Anions” (Biological Trace Element Research, 2014).
Read-outs that look alike come from different tables or passages of the source.

Experiments:
[1] = Potentiometric titration: stability constants of the complexes; type: physicochemical
Description: Potentiometric titrations were performed in a 30-mL thermostated (298.15 ± 0.10 K) cell using the Cerko Lab System microtitration unit fitted with a 5-mL Hamilton’s syringe, a pH combined electrode (Schott–BlueLine 16 pH type) and a self-made measuring cell equipped with a magnetic stirrer. The temperature was controlled using the Lauda E100 circulation thermostat. In aqueous solutions, the electrode was calibrated according to IUPAC recommendations. In binary systems (10–50 % v/v DMSO:H2O), the electrode calibration was performed by the Gran’s method using the GLEE program. For this purpose, the HClO4 solution was titrated with tetrabutylammonium hydroxide (Bu4NOH) solution both at the same mole fraction of organic solvent (10–50 (v/v%) DMSO). The syringe was calibrated by a weight method. The double distilled water of conductivity approximately 0.18 μS/cm was used throughout for the preparation of aqueous solutions. Other reagents used in the experiments were purchased from Sigma-Aldrich. They were as follows: VOSO4 (≥99.99 % trace metals basis), Co(NO3)2·6H2O (ACS reagent, ≥99 %), Ni(NO3)2·6H2O (99.999 %) and 2,2′-oxydiacetic acid (H2ODA, 98 %). All the solutions were prepared immediately before measurements. The compositions of the titrand solutions used in the experiments were as follows: (a) 2 mM Ni^2+ (Co^2+ or VO^2+), 5 mM H2ODA, 5 mM HClO4, (b) 2.5 mM H2ODA (for binary systems). The solutions (Vo = 5.0 mL) were potentiometrically titrated with the standardized 0.098 M NaOH solution or with the standardized 0.025 M Bu4NOH solution (in binary systems) in the pH range from 2.5 to 11.0. The titrant was added to the titrand in increments of 0.01 mL, with a pause of 60 s. Each titration was repeated at least three times in order to check the reproducibility of the data. The stability constants of the complexes were determined using the Hyperquad2008 program. The concentration distribution of various complex species existing in the solution as a function of pH was obtained using the HySS program.
The equilibrium constants defined by Eqs. (1) and (2):1 pM+qL+rH=MpLqHr 2 βpqr=MpLqHr/M^pL^qH^r (where M is VO^2+, Co^2+ or Ni^2+, L denotes the oxydiacetate ion, H is the proton and p, q, r are stoichiometric coefficients for the reaction) were refined by least-squares calculations using the Hyperquad2008 (version 5.2.19) computer program. For the oxovanadium(IV) system, the formation of the hydroxo complexes of VO(IV) were taken into account in the calculations of the stability constants. The following formation constants were taken from the literature and were fixed: logβ 10–1 = −5.94, logβ 20–2 = −6.95 and logβ 10–3 = −18. The equilibrium models presented in Table 2 have given the best fitting of the calculated data to the experimental ones.

[2] = system: Human Dermal Fibroblasts adult (HDFa) cell line; assay: Cytotoxicity assay (MTT); type: cell-based; conditions: for viability of the cells / cytotoxic effect / LC50 / CC50: HDFa, MTT; for viability of the cells: 500 μM; for cytotoxic effect: 1–500 μM; for CC50: read-out: LC50 (the source's name)
Description: The Human Dermal Fibroblasts adult (HDFa) cell line (Cascade Biologics) was used in all experiments. Unless otherwise specified, cells were grown in the Dulbecco’s modified Eagle’s medium (DMEM) supplemented with 10 % fetal bovine serum (FBS) and 1× antibiotic and antimycotic solutions (all purchased from Sigma) and incubated at 310.15 K in the humidified 5 % CO2 atmosphere.
HDFa cells were plated at 6 × 10^3 cells per well in a 96-well tissue culture plate and incubated overnight at 310.15 K to allow the attachment. The growth medium was substituted with the medium supplemented with tested complex compounds. After 24- or 48-h incubation, the cell viability was assessed using the MTT solution (3-(4,5-dimethylthiazol-2-yl)-2,5-diphenyltetrazolium bromide [Sigma]) at a concentration of 1 mg/mL prepared in the RPMI-1640 medium (Sigma). After 2-h incubation at 310.15 K, the amount of purple formazan product, dissolved in dimethylsulfoxide (DMSO) (Sigma), was quantified by measuring the absorbance at 550 nm.

Bacillus subtilis = assay: Disc diffusion test; type: cell-based; conditions: B. subtilis
Description: (§1) The antimicrobial activity of complex compounds was assessed against Bacillus subtilis, Escherichia coli, Enterococcus faecalis, Pseudomonas aeruginosa, Staphylococcus aureus, Staphylococcus epidermidis (all strains were from the collection of the Department of Molecular Biology, University of Gdańsk). All bacteria were cultured in the Luria-Bertani (LB) broth at 310.15 K in the air with shaking. LB agar plates were prepared by the supplementation of LB broth with the 1.5 % bacteriological agar. Stock solutions of complex compounds were freshly prepared in the LB broth at the concentration of 25 mg/mL. Aliquots of 0.05 mL of bacterial culture at the optical density at 600 nm of 0.1 (inoculum 5 × 10^6 cells per plate) were spread on LB agar plates. Sterile filter paper discs (of 6 mm diameter) were impregnated with solutions of complex compounds prepared in the deionized water at the following amounts: 0.1, 0.2, 0.5 and 1.0 mg per disc and placed on agar plates. After an overnight incubation at 310.15 K, zones of bacterial growth inhibition were measured. Neomycin at the amount of 0.1 mg/disc was used as a control.

Enterococcus faecalis = assay: Disc diffusion test; type: cell-based; conditions: E. faecalis
Description: as §1

Staphylococcus aureus = assay: Disc diffusion test; type: cell-based; conditions: S. aureus
Description: as §1

[3] = system: Staphylococcus epidermidis; assay: Disc diffusion test; type: cell-based; conditions: S. epidermidis
Description: as §1

[4] = PT, 298.15 K, aqueous, hydroxo species

Structure (SMILES): O.O.O.O=C(O)COCC(=O)O.[Co] [Co(ODA), [Co(ODA)(H2O)2]·H2O]
- logβ 110 (species ML), stability constant ([1]; PT, 298.15 K, aqueous): 3.45 (±0.11)
- logβ 11–2 (species MLH−2) [1, 4]: −14.88 (±0.14)
- LC25 [2]: Immeasurable
- LC75 [2]: Immeasurable
- viability of the cells ([2]; 24 h): no less than 95%
- viability of the cells ([2]; 48 h): about 90%
- cytotoxic effect ([2]; 24 h): no significant cytotoxic effects
- LC50 ([2]; 24-h exposure time): Immeasurable
- LC50 ([2]; 48-h exposure time): Immeasurable
- Zone of growth inhibition (Bacillus subtilis; 500 μg/disc): 9 mm
- Zone of growth inhibition (Bacillus subtilis; 1000 μg/disc): 11 mm
- Zone of growth inhibition (Enterococcus faecalis; 500 μg/disc): 10 mm
- Zone of growth inhibition (Enterococcus faecalis; 1000 μg/disc): 15 mm
- Zone of growth inhibition (Staphylococcus aureus; 100 μg/disc): 7 mm
- Zone of growth inhibition (Staphylococcus aureus; 500 μg/disc): 12 mm
- Zone of growth inhibition (Staphylococcus aureus; 1000 μg/disc): 17 mm
- Zone of growth inhibition ([3]; 100 μg/disc): 8 mm
- Zone of growth inhibition ([3]; 500 μg/disc): 19 mm
- Zone of growth inhibition ([3]; 1000 μg/disc): 23 mm

Structure (SMILES): O.O.O=C([O-])COCC(=O)[O-].[O]=[V+2] [VO(ODA), [VO(ODA)(H2O)2]]
- logβ 110 (species ML), stability constant ([1]; PT, 298.15 K, aqueous): 5.08 (±0.04)
- logβ 11–2 (species MLH−2) [1, 4]: −6.45 (±0.04)
- logβ 22–2 (species M2L2H−2) [1, 4]: 1.65 (±0.15)
- pH at which hydroxo species predominate over the complex ([1]; species distribution M:L = 1:1 calculated from stability constants): > 5.5
- cytotoxic effect ([2]; 24 h): exhibits the cytotoxic effect
- CC50 ([2]; 24-h exposure time): 296 µM
- CC50 ([2]; 48-h exposure time): 87.5 µM
- Zone of growth inhibition (Bacillus subtilis; 1000 μg/disc): 7 mm
- Zone of growth inhibition (Enterococcus faecalis; 500 μg/disc): 9 mm
- Zone of growth inhibition (Enterococcus faecalis; 1000 μg/disc): 13 mm
- Zone of growth inhibition ([3]; 1000 μg/disc): 12 mm

Structure (SMILES): O.O.O.O.O.O.O.O.O.O=C([O-])COCC(=O)[O-].O=C([O-])COCC(=O)[O-].[Ni+2].[Ni+2] [Ni(ODA), [Ni(ODA)(H2O)3]·1.5H2O]
- logβ 110 (species ML), stability constant ([1]; PT, 298.15 K, aqueous): 3.52 (±0.02)
- logβ 11–2 (species MLH−2) [1, 4]: −14.17 (±0.06)
- viability of the cells ([2]; 24 h): no less than 95%
- viability of the cells ([2]; 48 h): ~75%
- cytotoxic effect ([2]; 24 h): no significant cytotoxic effects
- LC50 ([2]; 24-h exposure time): Immeasurable
- CC50 ([2]; 48-h exposure time): 1310 µM
- Zone of growth inhibition (Bacillus subtilis; 500 μg/disc): 8 mm
- Zone of growth inhibition (Bacillus subtilis; 1000 μg/disc): 8 mm
- Zone of growth inhibition (Staphylococcus aureus; 500 μg/disc): 7 mm
- Zone of growth inhibition (Staphylococcus aureus; 1000 μg/disc): 8 mm
